# Article PMC10702058, “Phase I dose escalation study and pilot efficacy analysis of LXI-15029, a novel mTOR dual inhibitor, in Chinese subjects with advanced malignant solid tumors” (BMC Cancer, 2023)
# “Also recorded” adds a separate entry of the source.
# Test: Plasma pharmacokinetics of LXI-15029 (LC-MS/MS, non-compartmental analysis)
# Assay type: in vivo, human
# Conditions: for Cmax at 28 day / AUC / AUC(0-inf) / Cmax: human, plasma, geometric mean (coefficient of variation); for Cmax at 28 day / AUC / RacAUC (accumulation ratio) / RacCmax (accumulation ratio) / t1/2ss: multiple dose, cycle 1 day 28; for AUC(0-inf) / Cmax / CL/F / V/F: single dose, cycle 1 day 1; for RacAUC (accumulation ratio) / RacCmax (accumulation ratio) / t1/2ss / CL/F / V/F: arithmetic mean ± standard deviation
# Method: Blood samples for PK analysis of LXI-15029 were collected on day 1 (pre-dose, 20 min, 40 min, 1 h, 1.5 h, 2 h, 3 h, 4 h, 6 h, 8 h, 12 h, 24 h, and 48 h), cycle 1 day 8 (pre-dose), cycle 1 day 15 (pre-dose), and cycle 1 day 28 (pre-dose, 20 min, 40 min, 1 h, 1.5 h, 2 h, 3 h, 4 h, 6 h, 8 h, and 12 h). The blood samples were stored at -70°C until testing. The concentration of LXI-15029 in plasma was measured using the validated liquid chromatography-tandem mass spectrometry (LC–MS/MS) method. The concentration–time information of LXI-15029 was summarized based on pre-dose and post-dose data of each patient, to explore the linearity of exposure with single dose and steady-state situations, the time to reach steady state and the predictability of single to multiple doses PK. PK parameters were calculated separately for single and repeated doses using descriptive statistics. PK analysis was performed by Covance Central Laboratory using the validated software Phoenix WinNonlin Version 8.1 (Pharsight, Mountain View, CA). A standard non-compartmental method was used to calculate the peak plasma concentration (Cmax), time to reach the Cmax (tmax), the total area under the concentration–time curve (AUC0-∞), and the elimination half-life (t1/2).
smiles,measurement,setting,value
CNC(=O)c1cccc(-c2ccc3c(N4C5CCC4COC5)nc(N4CCOC[C@@H]4C)nc3n2)c1 [LXI-15029],Cmax at 28 day,"oral, 80 mg BID (n = 4)",2260 ng/mL
same,AUC,"oral, 110 mg BID (n = 3)",12900 ng·h/mL
same,Cmax at 28 day,"oral, 110 mg BID (n = 3)",3930 ng/mL
same,AUC,"oral, 150 mg BID (n = 4)",25500 ng·h/mL
same,Cmax at 28 day,"oral, 150 mg BID (n = 4)",5840 ng/mL
same,AUC(0-inf),"oral, 10 mg BID (n = 3)",111 ng·h/mL
same,Cmax,"oral, 10 mg BID (n = 3)",66.5 ng/mL
same,AUC(0-inf),"oral, 20 mg BID (n = 3)",898 ng·h/mL
same,Cmax,"oral, 20 mg BID (n = 3)",474 ng/mL
same,AUC(0-inf),"oral, 40 mg BID (n = 3)",1680 ng·h/mL
same,Cmax,"oral, 40 mg BID (n = 3)",1010 ng/mL
same,AUC(0-inf),"oral, 60 mg BID (n = 4)",3750 ng·h/mL
same,Cmax,"oral, 60 mg BID (n = 4)",1340 ng/mL
same,AUC(0-inf),"oral, 80 mg BID (n = 4)",1870 ng·h/mL
same,Cmax,"oral, 80 mg BID (n = 4)",1340 ng/mL
same,AUC(0-inf),"oral, 110 mg BID (n = 3)",5340 ng·h/mL
same,Cmax,"oral, 110 mg BID (n = 3)",2930 ng/mL
same,AUC(0-inf),"oral, 150 mg BID (n = 4)",12100 ng·h/mL
same,Cmax,"oral, 150 mg BID (n = 4)",4140 ng/mL
same,RacAUC (accumulation ratio),10 mg BID (n = 3),2.08 ± 1.289
same,RacCmax (accumulation ratio),10 mg BID (n = 3),1.96 ± 1.061
same,t1/2ss,10 mg BID (n = 3),1.13 ± 0.080 h
same,RacAUC (accumulation ratio),20 mg BID (n = 3),0.99 ± 0.260
same,RacCmax (accumulation ratio),20 mg BID (n = 3),0.75 ± 0.140
same,t1/2ss,20 mg BID (n = 3),1.24 ± 0.167 h
same,RacAUC (accumulation ratio),40 mg BID (n = 3),1.00 ± 0.036
same,RacCmax (accumulation ratio),40 mg BID (n = 3),1.02 ± 0.180
same,t1/2ss,40 mg BID (n = 3),1.14 ± 0.250 h
same,RacAUC (accumulation ratio),60 mg BID (n = 4),1.47 ± 0.546
same,RacCmax (accumulation ratio),60 mg BID (n = 4),1.37 ± 0.382
same,t1/2ss,60 mg BID (n = 4),1.90 ± 0.197 h
same,RacAUC (accumulation ratio),80 mg BID (n = 4),1.78 ± 0.268
same,RacCmax (accumulation ratio),80 mg BID (n = 4),1.28 ± 0.102
same,t1/2ss,80 mg BID (n = 4),1.33 ± 0.068 h
same,RacAUC (accumulation ratio),110 mg BID (n = 3),2.51 ± 0.778
same,RacCmax (accumulation ratio),110 mg BID (n = 3),1.37 ± 0.352
same,t1/2ss,110 mg BID (n = 3),2.33 ± 0.857 h
same,RacAUC (accumulation ratio),150 mg BID (n = 4),2.39 ± 0.768
same,RacCmax (accumulation ratio),150 mg BID (n = 4),1.36 ± 0.507
same,t1/2ss,150 mg BID (n = 4),3.26 ± 1.247 h
same,absorption after oral administration,oral,absorbed rapidly; also recorded: fast absorbed
same,CL/F,10 mg BID (n = 3),99.45 ± 51.035 L/h
same,V/F,10 mg BID (n = 3),126.07 ± 40.383 L
same,CL/F,20 mg BID (n = 3),24.11 ± 11.940 L/h
same,V/F,20 mg BID (n = 3),49.56 ± 19.453 L
same,CL/F,40 mg BID (n = 3),24.58 ± 7.772 L/h
same,V/F,40 mg BID (n = 3),42.35 ± 25.602 L
same,CL/F,60 mg BID (n = 4),16.47 ± 4.677 L/h
same,V/F,60 mg BID (n = 4),45.88 ± 14.063 L
same,CL/F,80 mg BID (n = 4),48.30 ± 25.396 L/h
same,V/F,80 mg BID (n = 4),92.88 ± 47.995 L
same,CL/F,110 mg BID (n = 3),24.35 ± 17.791 L/h
same,V/F,110 mg BID (n = 3),43.99 ± 17.319 L
same,CL/F,150 mg BID (n = 4),12.57 ± 2.022 L/h
same,V/F,150 mg BID (n = 4),34.75 ± 12.576 L
